Test results published in patent US7176008B2, “Process for producing activated thrombin-activatable fibrinolysis inhibitor” (Merck & Co., Inc., priority 2002, dated 2007).
Residues, ends and D or L forms follow the SMILES beside them. *: point of attachment. Biotin = O=C1N[C@H]2[C@H](CS[C@H]2CCCCC(=O)*)N1; Ahx = NCCCCCC(=O)O

Legend:
[1] = molecular target: T1, CPB (Homo sapiens, UniProt P15086); conditions: CPB versus TAFIa
T1 sequence (P15086 111-417): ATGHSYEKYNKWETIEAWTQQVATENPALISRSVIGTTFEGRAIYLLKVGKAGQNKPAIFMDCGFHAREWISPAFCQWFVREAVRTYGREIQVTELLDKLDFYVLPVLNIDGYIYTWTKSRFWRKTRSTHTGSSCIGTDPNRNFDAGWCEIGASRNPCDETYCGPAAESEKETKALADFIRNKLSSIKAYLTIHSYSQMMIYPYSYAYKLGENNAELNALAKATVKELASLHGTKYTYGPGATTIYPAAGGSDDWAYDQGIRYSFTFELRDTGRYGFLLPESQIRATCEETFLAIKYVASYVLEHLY
Method: (§1) A typical assay (75 μL) contained each studied carboxypeptidase and selected inhibitors (in 5 μL DMSO) in HBSP buffer in 96-well round bottom microtiter plates (Costar 3365 plates). Enzyme and compound were preincubated for 15–30 minutes at room temperature. […] The final substrate concentration was 15 to 50 nM. The amount of carboxypeptidase activity was titrated to result in 40,000–50,000 electrochemiluminescence counts (typically 0.02–0.1 nM, 0.01 nM, 5 nM, and 0.15–0.65 nM. for TAFIa, CPB, CPN and CPM, respectively). […] Ruthenium-labeled G2-10 (25 μL of 0.063 μg/mL) and streptavidin magnetic beads (25 μL of 0.2 mg/mL, Dynabeads M-280) were added to the quenched solution and shaken at 300 rpm for >1 hr. G2-10 antibody and beads were prepared in a BSA diluent containing 150 mM phosphate, pH 7.8, 150 mM NaCl, 3% (w/v) BSA (protease free fraction V) and 0.05% NaN3. The volume was brought to 250 μL with HBSP and read on an Igen 96-well electrochemiluminescence plate reader (M8 Analyzer) at 620 nm. Subtraction of background activity in solutions containing only substrate was performed to determine the final activity. […] One unit was defined as one nM product generated per min.
(§2) All measurements were performed in at least duplicates and the inhibition constants (Ki) were determined by the equation below wherein Vo and Vi are activity in the absence and presence of inhibitors, respectively. Vo/Vi=1+[I]/K1
(§3) Several commercial inhibitors were tested with the electrochemiluminescence assay.
(§4) Hydrolysis of substrate was measured in HBSP (pH 7.4) for TAFIa, CPB, CPM, and CPM. Activities of CPE and CPZ were measures in acetate buffer (pH 5.5) and Tris buffer (pH 7.4), respectively.

[2] = molecular target: T2, CPM (Homo sapiens, UniProt P14384)
T2 sequence (P14384 18-423 limits assumed): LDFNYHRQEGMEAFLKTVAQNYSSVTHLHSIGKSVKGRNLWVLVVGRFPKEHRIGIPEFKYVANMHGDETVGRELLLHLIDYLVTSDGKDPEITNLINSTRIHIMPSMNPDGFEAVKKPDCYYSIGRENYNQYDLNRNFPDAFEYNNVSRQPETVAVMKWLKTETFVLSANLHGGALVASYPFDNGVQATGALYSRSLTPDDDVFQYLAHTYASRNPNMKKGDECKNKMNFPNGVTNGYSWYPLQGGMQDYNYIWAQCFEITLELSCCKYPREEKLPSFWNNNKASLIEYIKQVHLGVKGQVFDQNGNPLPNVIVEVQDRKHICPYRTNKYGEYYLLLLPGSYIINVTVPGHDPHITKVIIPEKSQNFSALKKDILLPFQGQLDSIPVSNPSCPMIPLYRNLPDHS
Method: as §1, §2, §3, §4

[3] = molecular target: CPE (Homo sapiens, UniProt P16870); assay: biochemical
Method: (§5) Inhibition studies of CPE were performed in an acetate buffer containing 125 mM sodium acetate, pH 5.5, 1.25 mM CoCl2 at 37° C. […] CPE (final concentration 0.15 nM) was pre-incubated with inhibitors for 30 min at room temperature. The electrochemiluminescence substrate (final concentration 50 nM) was added and incubated for 6 hr at 37° C., then quenched with one-third volume of 1 M Tris, pH 8.0.
as §2

[4] = molecular target: T3, CPZ (Homo sapiens, UniProt Q66K79)
T3 sequence (Q66K79 19-652): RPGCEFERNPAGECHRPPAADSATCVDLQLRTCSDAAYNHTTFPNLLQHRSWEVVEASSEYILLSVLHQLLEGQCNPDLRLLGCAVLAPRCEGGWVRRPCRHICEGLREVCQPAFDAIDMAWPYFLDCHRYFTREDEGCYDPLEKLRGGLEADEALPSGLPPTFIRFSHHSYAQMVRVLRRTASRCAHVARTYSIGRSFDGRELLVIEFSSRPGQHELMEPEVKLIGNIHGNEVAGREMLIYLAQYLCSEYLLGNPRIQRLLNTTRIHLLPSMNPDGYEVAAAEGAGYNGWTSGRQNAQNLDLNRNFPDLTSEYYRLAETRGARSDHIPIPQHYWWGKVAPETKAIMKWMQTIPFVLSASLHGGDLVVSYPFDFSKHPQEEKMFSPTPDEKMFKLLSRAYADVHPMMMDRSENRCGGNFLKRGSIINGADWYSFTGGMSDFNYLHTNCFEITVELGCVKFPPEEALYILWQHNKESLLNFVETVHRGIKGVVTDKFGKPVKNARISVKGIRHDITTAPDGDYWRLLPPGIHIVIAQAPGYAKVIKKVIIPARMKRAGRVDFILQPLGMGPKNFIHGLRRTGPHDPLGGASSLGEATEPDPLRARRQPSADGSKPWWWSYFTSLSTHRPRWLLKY
Method: Inhibition studies of CPE were performed in an acetate buffer containing 125 mM sodium acetate, pH 5.5, 1.25 mM CoCl2 at 37° C. […] CPE (final concentration 0.15 nM) was pre-incubated with inhibitors for 30 min at room temperature. The electrochemiluminescence substrate (final concentration 50 nM) was added and incubated for 6 hr at 37° C., then quenched with one-third volume of 1 M Tris, pH 8.0. The activity of CPZ was determined in 100 mM Tris, pH 7.4 at 37° C.
CPZ (final concentration 2 nM) was pre-incubated with inhibitors for 30 min at room temperature before substrate was added (final concentration 50 nM). […] The concentration of product was determined as described above.
as §2
Activities of CPE and CPZ were measures in acetate buffer (pH 5.5) and Tris buffer (pH 7.4), respectively.

[5] = test system: CPE
Method: as §5, §2

[6] = molecular target: most carboxypeptidases; conditions: read-out: Ki for most carboxypeptidases; all except CPE
Method: (§6) A typical assay (75 μL) contained each studied carboxypeptidase and selected inhibitors (in 5 μL DMSO) in HBSP buffer in 96-well round bottom microtiter plates (Costar 3365 plates). Enzyme and compound were preincubated for 15–30 minutes at room temperature. […] The final substrate concentration was 15 to 50 nM. The amount of carboxypeptidase activity was titrated to result in 40,000–50,000 electrochemiluminescence counts (typically 0.02–0.1 nM, 0.01 nM, 5 nM, and 0.15–0.65 nM. for TAFIa, CPB, CPN and CPM, respectively). […] Ruthenium-labeled G2-10 (25 μL of 0.063 μg/mL) and streptavidin magnetic beads (25 μL of 0.2 mg/mL, Dynabeads M-280) were added to the quenched solution and shaken at 300 rpm for >1 hr. G2-10 antibody and beads were prepared in a BSA diluent containing 150 mM phosphate, pH 7.8, 150 mM NaCl, 3% (w/v) BSA (protease free fraction V) and 0.05% NaN3. The volume was brought to 250 μL with HBSP and read on an Igen 96-well electrochemiluminescence plate reader (M8 Analyzer) at 620 nm. […]
(§7) All measurements were performed in at least duplicates and the inhibition constants (Ki) were determined by the equation below wherein Vo and Vi are activity in the absence and presence of inhibitors, respectively. […]
(§8) Hydrolysis of substrate was measured in HBSP (pH 7.4) for TAFIa, CPB, CPM, and CPM. […]

[7] = molecular target: T4, CPN (Homo sapiens, UniProt P15169)
T4 sequence (P15169 21-458): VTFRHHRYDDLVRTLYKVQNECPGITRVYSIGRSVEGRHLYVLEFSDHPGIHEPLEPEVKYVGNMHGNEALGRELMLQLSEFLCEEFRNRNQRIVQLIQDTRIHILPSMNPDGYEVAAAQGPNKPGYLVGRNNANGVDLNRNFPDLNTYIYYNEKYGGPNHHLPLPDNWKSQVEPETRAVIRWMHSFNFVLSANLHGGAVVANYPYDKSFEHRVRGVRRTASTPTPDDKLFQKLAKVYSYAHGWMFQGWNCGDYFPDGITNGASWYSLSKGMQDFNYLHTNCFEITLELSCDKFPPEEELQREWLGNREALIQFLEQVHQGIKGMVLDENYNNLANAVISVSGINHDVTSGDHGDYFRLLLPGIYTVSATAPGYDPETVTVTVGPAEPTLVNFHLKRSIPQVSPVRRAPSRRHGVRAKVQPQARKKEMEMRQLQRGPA
T4 sequence (P22792 22-545 partner): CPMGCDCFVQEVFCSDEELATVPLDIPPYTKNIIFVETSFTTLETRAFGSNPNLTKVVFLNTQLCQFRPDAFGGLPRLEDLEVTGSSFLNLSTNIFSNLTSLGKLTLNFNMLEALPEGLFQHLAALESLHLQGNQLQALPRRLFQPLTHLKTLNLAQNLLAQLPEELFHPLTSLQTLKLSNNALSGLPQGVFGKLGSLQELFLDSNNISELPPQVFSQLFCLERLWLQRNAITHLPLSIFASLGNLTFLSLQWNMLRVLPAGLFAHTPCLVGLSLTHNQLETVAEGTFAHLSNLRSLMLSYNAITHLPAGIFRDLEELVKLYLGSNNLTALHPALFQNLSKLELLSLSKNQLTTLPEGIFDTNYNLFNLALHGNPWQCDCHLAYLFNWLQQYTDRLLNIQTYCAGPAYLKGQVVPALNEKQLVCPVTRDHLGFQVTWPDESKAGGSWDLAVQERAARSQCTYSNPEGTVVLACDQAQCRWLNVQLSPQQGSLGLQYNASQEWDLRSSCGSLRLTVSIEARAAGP
Method: as §6, §7, §8

Sequence of CPE (Homo sapiens, UniProt P16870) (P16870 43-450 limits assumed): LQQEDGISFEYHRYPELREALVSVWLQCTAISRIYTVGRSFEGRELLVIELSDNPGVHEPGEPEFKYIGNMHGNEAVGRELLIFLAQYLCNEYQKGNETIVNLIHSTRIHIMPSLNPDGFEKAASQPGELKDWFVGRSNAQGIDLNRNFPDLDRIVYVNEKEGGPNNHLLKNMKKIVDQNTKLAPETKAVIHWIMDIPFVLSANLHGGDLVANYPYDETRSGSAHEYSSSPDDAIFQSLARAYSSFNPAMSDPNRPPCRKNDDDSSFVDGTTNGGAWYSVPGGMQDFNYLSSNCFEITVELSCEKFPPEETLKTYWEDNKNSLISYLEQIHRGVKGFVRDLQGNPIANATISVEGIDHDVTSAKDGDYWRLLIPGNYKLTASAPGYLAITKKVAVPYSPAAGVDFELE

N=C(N)NCCSCC(CS)C(=O)O (racemic) [Plummer's Inhibitor, DL-2-mercaptomethyl-3-guinidinoethylthiopropanoic acid]
inhibitory potency toward CPB relative to TAFIa [1]: two to three orders of magnitude greater
Ki [2]: 0.003 µM

CSCC[C@H](NC(=O)[C@H](CC(C)C)NC(=O)CNC(=O)CCCCCNC(=O)CCCCCNC(=O)CCCC[C@@H]1SC[C@@H]2NC(=O)N[C@@H]21)C(=O)N[C@H](C(=O)NCC(=O)NCC(=O)N[C@H](C(=O)N[C@H](C(=O)N[C@@H](CCCNC(=N)N)C(=O)O)C(C)C)C(C)C)C(C)C ({Biotin-Ahx-Ahx}-GLMVGGVVR-OH)
Km ([2]; read-out: Km for CPM, 37° C.): > 50 µM

N=C(N)NCCSC(CC(=O)O)C(=O)O (centres unmarked) [GEMSA, 2-guanidinoethylmercaptosuccinic acid]
inhibitory potency toward CPB relative to TAFIa [1]: two to three orders of magnitude greater
Ki [3]: 0.016 µM
Ki [4]: 7 µM
fold less potent for CPZ than for CPE ([4]; CPZ versus CPE): 440 fold

NCCCCCC(=O)O [ε-aminocaproic acid]
fold more potent on CPE than inhibition of CPB ([5]; CPE versus CPB): > 100 fold
potency on CPE relative to the other enzymes ([5]; CPE versus other carboxypeptidases): two orders of magnitude more potent
Ki [6]: ≥ 1000 µM
IC50 [3]: 8 µM
Ki [3]: 8.2 µM

protamine
specificity for CPN activity ([7]; CPN versus the other carboxypeptidases): > 100 fold
Ki ([7]; read-out: Ki for CPN, room temperature, HBSP pH 7.4): 0.97 µM
